What was measured:
[1] = tested on: PD patients; test: Patient falls, double-blind placebo-controlled study of Example 2; type: in vivo, human
Procedure: A multi-center, double-blind, randomized, placebo-controlled study was carried out to assess the clinical effect of droxidopa for reducing falls in PD patients. The study included a two week double-blind dose-titration period followed by an eight week double-blind treatment period. A screening period (up to 14 days) was used to determine patient eligibility. The patients were then randomized into a treatment group and a placebo group. Patients entered a double-blind titration phase at 100 mg TID of droxidopa or matching placebo. Treatment was escalated in 100 mg TID increments to a maximum of 600 mg TID. Upon completion of the dose titration phase, patients returned for study visits after 1, 2, 4, and 8 weeks of double-blind treatment at their titrated dose. The study included 78 placebo-treated patients and 69 droxidopa-treated patients. […] This is illustrated in FIG. 9.

[2] = tested on: PD patients; test: MDS-UPDRS score, study of Example 1; type: in vivo, human; conditions: for MDS-UPDRS, Baseline: before treatment
Procedure: (§1) A multi-center, double-blind, randomized, parallel-group, placebo-controlled study was carried out to assess the clinical effect of droxidopa over the course of 10 weeks for reducing falls in PD patients. The study included a two week double-blind dose-titration period followed by an eight week double-blind treatment period. A screening period (up to 14 days) was used to determine patient eligibility. Throughout the study, visit specific assessments were conducted three hours (an acceptable range was two to five hours) following the patient's first daily dose of droxidopa. Patients who successfully passed all screening assessments continued to the baseline measurements. At the end of the baseline visit, eligible patients were randomized to treatment with either droxidopa or placebo (randomization was double-blind, 1:1). Patients entered a double-blind titration phase at 100 mg TID of droxidopa or matching placebo. Treatment was escalated in 100 mg TID increments to a maximum of 600 mg TID. Upon completion of the dose titration phase, patients returned for a study visit after 8 weeks of double-blind treatment at their titrated dose. The study included 27 placebo-treated patients and 24 droxidopa-treated patients.
(§2) Patients in the study were evaluated using the Hoehn and Yahr rating scale and the Movement Disorder Society-sponsored revised version of the UPDRS to evaluate the effect of treatment as evidenced by these two scales. A baseline score for each patient using each test was established prior to treatment with droxidopa or the placebo, and a post-treatment score for each test was established at the end of the study.
The UPDRS likewise is a useful test for evaluating improvements in symptoms that can be a cause of falls in PD patients since this scale is used to assess the severity of motor and non-motor symptoms in PD patients. In the present study, droxidopa-treated patients experienced a 15.8 point improvement (i.e., decrease) from baseline compared with an 11.4 point improvement in placebo-treated patients. […] The 4.4 point treatment difference favoring droxidopa in the total UPDRS score reflects pronounced improvement in the motor features of PD and mirrors the improvements observed on the Hoehn and Yahr rating scale score.

[3] = tested on: PD patients; test: Patient-reported falls, double-blind placebo-controlled study of Example 1; type: in vivo, human
Procedure: A multi-center, double-blind, randomized, parallel-group, placebo-controlled study was carried out to assess the clinical effect of droxidopa over the course of 10 weeks for reducing falls in PD patients. The study included a two week double-blind dose-titration period followed by an eight week double-blind treatment period. A screening period (up to 14 days) was used to determine patient eligibility. Throughout the study, visit specific assessments were conducted three hours (an acceptable range was two to five hours) following the patient's first daily dose of droxidopa. Patients who successfully passed all screening assessments continued to the baseline measurements. At the end of the baseline visit, eligible patients were randomized to treatment with either droxidopa or placebo (randomization was double-blind, 1:1). Patients entered a double-blind titration phase at 100 mg TID of droxidopa or matching placebo. Treatment was escalated in 100 mg TID increments to a maximum of 600 mg TID. Upon completion of the dose titration phase, patients returned for a study visit after 8 weeks of double-blind treatment at their titrated dose. The study included 27 placebo-treated patients and 24 droxidopa-treated patients. During the study, the placebo-treated patients reported a total of 197 falls compared with 79 falls reported by the droxidopa-treated patients. […] Standardizing the above data to the number of falls per patient per week, patients randomized to the placebo treatment experienced an average of 0.93 falls per patient per week. Patients randomized to the droxidopa treatment experienced an average of 0.39 falls per patient per week. This represents an approximate 60% reduction in the number of falls reported by droxidopa-treated patients compared with placebo-treated patients. […] In the study, it was evident that a number of patients in each group was not normally distributed—i.e., a few patients in each group experienced many more falls than the remaining patients in each respective group. A sensitivity analysis was performed to assess the robustness of the treatment effect in light of this disparity in falls within each group. The beneficial treatment effect favoring droxidopa was evident even when the top two patients or the top five patients who experienced the highest number of falls in each treatment group were removed from the analysis. See FIG. 4 and FIG. 5, respectively. When the top two patients in each treatment group were excluded, patients randomized to the placebo group experienced an average of 0.54 falls per patient per week compared with 0.16 falls per patient per week in patients randomized to the droxidopa group. Similarly, when the top five patients in each treatment group were excluded, patients randomized to the placebo group experienced an average of 0.20 falls per patient per week compared with 0.10 falls per patient per week in patients randomized to the droxidopa group.

[4] = tested on: PD patients suffering from "freezing of gait"; conditions: Narabayashi et al. 1981; cited from earlier work
[5] = tested on: PD patients; test: Hoehn and Yahr rating scale score, study of Example 1; type: in vivo, human; conditions: for Hoehn and Yahr, Baseline: before treatment
Procedure: as §1, §2
Since the Hoehn and Yahr rating scale is heavily weighted towards postural instability as the primary index of disease severity, it is believed that the Hoehn and Yahr score serves as a useful measure of the effect of treatment on NOH in a PD patient population. At the end of this study, droxidopa-treated patients experienced, on average, an improvement from baseline (i.e., a reduction in the score) in their Hoehn and Yahr rating scale score (change: −0.4 points) while placebo-treated patients experienced no change from baseline in their Hoehn and Yahr rating scale score, resulting in a notable treatment difference of −0.4 units favoring droxidopa. Based on an analysis of Hoehn and Yahr rating scale scores in individual patients, a higher proportion of droxidopa-treated patients experienced an improvement in their Hoehn and Yahr rating scale score at the end of the study (10 of 24 patients; 42%) compared with placebo-treated patients (5 of 27 patients; 19%). Conversely, a lower proportion of droxidopa-treated patients experienced a worsening in their Hoehn and Yahr rating scale score at the end of the study (3 of 24 patients; 13%) compared with placebo-treated patients (10 of 27 patients; 37%).

[6] = target: T1, MAO-A (Homo sapiens, UniProt P21397); conditions: cited from earlier work
T1 sequence (P21397 1-527): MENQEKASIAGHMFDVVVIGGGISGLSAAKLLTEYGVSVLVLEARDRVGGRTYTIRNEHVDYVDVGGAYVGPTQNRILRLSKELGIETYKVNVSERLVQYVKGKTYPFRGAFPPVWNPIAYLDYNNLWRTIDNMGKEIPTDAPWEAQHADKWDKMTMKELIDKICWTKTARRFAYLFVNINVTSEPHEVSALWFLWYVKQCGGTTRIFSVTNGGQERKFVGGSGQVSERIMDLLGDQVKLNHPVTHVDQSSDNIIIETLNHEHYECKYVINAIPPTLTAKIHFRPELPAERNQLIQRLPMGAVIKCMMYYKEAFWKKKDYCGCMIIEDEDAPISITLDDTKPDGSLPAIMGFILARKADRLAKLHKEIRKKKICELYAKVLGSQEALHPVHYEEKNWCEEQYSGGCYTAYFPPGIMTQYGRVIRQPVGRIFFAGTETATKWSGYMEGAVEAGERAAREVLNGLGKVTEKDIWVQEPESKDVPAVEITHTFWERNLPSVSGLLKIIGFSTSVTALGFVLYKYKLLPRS

[7] = patients with recurrent falls, versus placebo

SMILES: NC(C(=O)O)C(O)c1ccc(O)c(O)c1 (stereo not drawn) [droxidopa, threo-3-(3,4-dihydroxyphenyl) serine]
- rate of falls per patient per week ([1]; 69 droxidopa-treated, 78 placebo-treated patients, titrated 100-600 mg TID): visibly less than in the placebo treatment group
- treatment effect on falls, sensitivity analysis ([1]; top two, top five and top ten patients with highest number of falls in each group removed): beneficial treatment effect favoring droxidopa was again evident
- MDS-UPDRS, End of Study ([2]; Non-recurrent Fallers (n = 15)): 58.1
- MDS-UPDRS, Baseline ([2]; Non-recurrent Fallers (n = 15)): 74.3
- MDS-UPDRS, End of Study ([2]; Recurrent Fallers (n = 9)): 77.7
- MDS-UPDRS, Baseline ([2]; Recurrent Fallers (n = 9)): 89.1
- improvement (decrease) from baseline in UPDRS score ([2]; end of study, all droxidopa-treated patients, placebo 11.4): 15.8 point
- improvement in UPDRS score [2, 7]: marked improvement
- each of the four components of the UPDRS score ([2]; versus placebo): showed benefits for droxidopa compared with placebo
- treatment difference favoring droxidopa in the total UPDRS score ([2]; versus placebo): 4.4 point
- reduction in the number of falls compared with placebo-treated patients [3]: ~60%
- total number of falls reported during the study ([3]; 10 weeks, 24 droxidopa-treated patients, titrated 100-600 mg TID, placebo 197): 79 falls
- treatment effect on total number of patient falls ([3]; data from the first 10 days of the study removed): beneficial treatment effect favoring droxidopa on the total number of patient falls remained evident
- average falls per patient per week ([3]; full analysis set, placebo 0.93): 0.39 falls per patient per week
- patients who experienced recurrent falls ([3]; of 24 droxidopa-treated patients, placebo 12 of 27): nine
- average falls per patient per week ([3]; top five patients with highest number of falls in each group excluded, placebo 0.20): 0.10 falls per patient per week
- average falls per patient per week ([3]; top two patients with highest number of falls in each group excluded, placebo 0.54): 0.16 falls per patient per week
- cumulative number of patient-recorded falls over time ([3]; versus placebo): relative increase in the number of falls in the placebo treatment group over time was consistently larger compared with the relative increase over time in the droxidopa treatment group
- effect on freezing of gait [4]: a beneficial effect was reported
- Hoehn and Yahr, End of Study ([5]; Non-recurrent Fallers (n = 15)): 1.4
- Hoehn and Yahr, Baseline ([5]; Non-recurrent Fallers (n = 15)): 1.8
- Hoehn and Yahr, End of Study ([5]; Recurrent Fallers (n = 9)): 1.7
- Hoehn and Yahr, Baseline ([5]; Recurrent Fallers (n = 9)): 1.9
- Change in Hoehn and Yahr Rating Scale Score: Improved, % ([5]; end of study, N = 24): 42%
- Change in Hoehn and Yahr Rating Scale Score: No Change, % ([5]; end of study, N = 24): 46%
- Change in Hoehn and Yahr Rating Scale Score: Worsened, % ([5]; end of study, N = 24): 13%
- change from baseline in Hoehn and Yahr rating scale score ([5]; end of study, all droxidopa-treated patients, average, placebo no change): −0.4 points
- treatment difference in Hoehn and Yahr rating scale score favoring droxidopa ([5]; end of study, versus placebo): −0.4 units
- improvement in Hoehn and Yahr score [5, 7]: marked improvement

SMILES: O=C(NCCN1CCOCC1)c1ccc(Cl)cc1 [moclobemide]
- selectivity for MAO-A over MAO-B [6]: approximately three times more selective for MAO-A than MAO-B

Reference: patent publication US20130197090A1, “POSTURAL STABILITY AND INCIDENT FUNCTIONS IN PATIENTS” (Chelsea Therapeutics, Inc., priority 2012, published 2013)
